Measurements reported in patent US4826856A, “Calcium antagonistic dihydropyridine derivative” (Yason s.r.l., priority 1985, dated 1989).
Where two headings read alike, the source gives them in different places.

Legend:
[1] = Acute toxicity in the mouse; conditions: in vivo
Description: The acute toxicity of YS 201 given by intraveous route, similar in the males and in the females in the rat as well as in the mouse, is as follows:
The acute toxicity of YS 201 given by oral route, similar in the males and in the females in the rat as well as in the mouse, is as follows: […]

normotensive rats = assay: Effect on blood pressure in normotensive rats (intraduodenal); assay type: in vivo, rat; conditions: 15 mg/kg intraduodenal; for HR (heart rate): in beats/min (unit assumed)
Method: Comparative effect of YS 201 on 3 month old rats and 6 month old SHR-SP
YS 201 was given by intraduodenal route at 15 mg/kg in normotensive rats.

Sprague-Dawley rats = assay: Ventricular arrhythmias during coronary artery ligation period; assay type: in vivo, rat; parameters: EBs, mean value of indices + SEM / VT, mean value of indices + SEM / VF, mean value of indices + SEM: scale not given here
Method: Ventricular arrhythmias after coronary artery ligation in the acute phase or during the period of re-circulation
Sprague-Dawley rats were subjected to ligation of the left coronary artery according to the method of Clark et al. in J. Pharmacol. Methods 3, 357-368, 1980. The drugs were administered by gastric tube 30 minutes before the ligation. By means of a continuous electrocardiographic recording, the ventricular arrhythmias such as ectopic beats (EB), ventricular tachycardia (VT), ventricular fibrillation (VF) for 30 minutes after ligation, were recorded.

post-oligoemic rats = assay: Transient cerebral oligoemia in the rat, cerebral water, K+ and Ca++ content; assay type: in vivo
Method: Transient cerebral oligoemia in the rat
The method described by Borzeix in Circulation et Metabolisme du Cerveau 1, 63-79, John Libbey Eurotext Publ. […] The animals were treated by the oral route with the tested drugs twice a day, starting one hour after the ligation and for 3 days, in scalar doses.
The last dose, at the 71th hour after the occlusion, preceeded by one hour the sacrifice of the animal, whose brain was subjected to the determination of the H2 O, K^+ and Ca^++ content.

[2] = Pharmacokinetics and bioavailability in dogs; assay type: in vivo; conditions: dog; for half-life: hydrochloride
Method: YS 201 hydrochloride was intravenously and orally administered to dogs at 1 and 10 mg/kg respectively.

[3] = Bioavailability after oral administration in normal volunteers; assay type: in vivo, human; parameters: AUC: concentration or dose not given beside the values; conditions: for Tmax / Cmax / half-life / AUC: human, plasma, po; for Tmax / Cmax: oral 20 mg
Method: The study was performed in 4 male subjects aged 26-43 years. Pharmacokinetic studies were performed both after acute and repeated administrations. Acute administration […] Further venous blood samples were withdrawn 15-30 minutes and 1.0-1.5-2.0-4.0-6.0-8.0 hours after treatment. Multiple-doses administration […] Blood samples were withdrawn 2-4-8-12 hours after the last treatment.

volunteers = assay: Clinical tolerance of oral treatment in volunteers; assay type: in vivo, human
Method: The study was performed in 4 male subjects aged 26-43 years.
Each volunteer received one capsule of 20 mg of YS 201 with a glass of water.
The same four volunteers, after the first administration were treated with increasing doses of YS 201: 30-40-50 mg.

## CCOC(=O)C1=C(C)NC(C)=C(C(=O)OCCN2CCCCC2)C1c1cccc([N+](=O)[O-])c1 (stereo not drawn) [YS 201, ethyl-(β-piperidinoethyl)-2,6-dimethyl-4-(3-nitrophenyl)-1,4-dihydropyridine-3,5-dicarboxylate]
[1]; iv
  LD50: 12.3 mg/kg
[1]; po
  LD50: 283 mg/kg
Normotensive rats; 1 min
  DBP (diastolic blood pressure): 13.0 ± 0.74
  MBP (mean blood pressure): 14.8 ± 0.64
  SBP (systolic blood pressure): 18.4 ± 0.48
  HR (heart rate): 556 ± 9.8
Normotensive rats; 2 min
  DBP (diastolic blood pressure): 12.0 ± 0.35
  MBP (mean blood pressure): 13.9 ± 0.28
  SBP (systolic blood pressure): 17.8 ± 0.26
  HR (heart rate): 556 ± 7.5
Normotensive rats; 5 min
  DBP (diastolic blood pressure): 10.4 ± 0.33
  MBP (mean blood pressure): 12.7 ± 0.19
  SBP (systolic blood pressure): 17.2 ± 0.26
  HR (heart rate): 564 ± 7.5
Normotensive rats; 5 min after administration
  reduction of diastolic blood pressure (DBP): 3.1 KPA
Normotensive rats; 10 min
  DBP (diastolic blood pressure): 9.4 ± 0.19
  MBP (mean blood pressure): 11.6 ± 0.15
  SBP (systolic blood pressure): 15.9 ± 0.19
  HR (heart rate): 536 ± 7.5
Normotensive rats; 15 min
  DBP (diastolic blood pressure): 9.8 ± 0.34
  MBP (mean blood pressure): 11.7 ± 0.28
  SBP (systolic blood pressure): 15.6 ± 0.29
  HR (heart rate): 524 ± 11.7
Normotensive rats; 30 min
  DBP (diastolic blood pressure): 11.3 ± 0.62
  MBP (mean blood pressure): 12.9 ± 0.51
  SBP (systolic blood pressure): 16.0 ± 0.35
  HR (heart rate): 496 ± 22.3
Normotensive rats; 60 min
  DBP (diastolic blood pressure): 12.4 ± 0.40
  MBP (mean blood pressure): 14.0 ± 0.35
  SBP (systolic blood pressure): 17.3 ± 0.26
  HR (heart rate): 428 ± 24.2
Normotensive rats; 120 min
  DBP (diastolic blood pressure): 13.7 ± 0.87
  MBP (mean blood pressure): 15.3 ± 0.90
  SBP (systolic blood pressure): 18.5 ± 1.06
Normotensive rats; TO (baseline)
  DBP (diastolic blood pressure): 13.5 ± 0.55
  MBP (mean blood pressure): 13.2 ± 0.50
  SBP (systolic blood pressure): 18.5 ± 0.47
  HR (heart rate): 432 ± 28.7
Sprague-Dawley rats; 0.75 mg/kg p.o.
  Death rate %: 20%
  EBs, mean value of indices + SEM: 42.1 ± 9.70
  VF %: 60%
  VF, mean value of indices + SEM: 3.8 ± 1.77
  VT, mean value of indices + SEM: 1.3 ± 0.68
Sprague-Dawley rats; 1.5 mg/kg p.o.
  Death rate %: 0%
  EBs, mean value of indices + SEM: 45.7 ± 6.18
  VF %: 20%
  VF, mean value of indices + SEM: 0.5 ± 0.49
  VT, mean value of indices + SEM: 1.9 ± 0.32
Sprague-Dawley rats; 3.0 mg/kg p.o.
  Death rate %: 80%
  EBs, mean value of indices + SEM: 36.0 ± 9.11
  VF %: 100%
  VF, mean value of indices + SEM: 4.8 ± 1.41
  VT, mean value of indices + SEM: 1.6 ± 0.77
Sprague-Dawley rats; whatever the dosage
  reduction of the index attributed to EBs and VT: ~2 fold
post-oligoemic rats; 0.25 mg/kg p.o.
  Cerebral content of H2O: 79.2 ± 0.57%
post-oligoemic rats; 0.5 mg/kg p.o.
  Cerebral content of Ca++: 11.7 ± 3.00 mmol · kg^-1 dry weig
  Cerebral content of H2O: 78.3 ± 0.39%
post-oligoemic rats; 1 mg/kg p.o.
  Cerebral content of Ca++: 11.7 ± 5.53 mmol · kg^-1 dry weig
  Cerebral content of H2O: 77.8 ± 0.47%
post-oligoemic rats; 3 mg/kg p.o.
  Cerebral content of Ca++: 12.6 ± 3.89 mmol · kg^-1 dry weig
  Cerebral content of H2O: 78.8 ± 0.44%
[2]; 1 mg/kg intravenous
  decline in concentration: typically biexponential
[2]; in vivo, 10 mg/kg, oral, read-out: average apparent bioavailable fraction
  bioavailability: 19.4%
[2]; in vivo, 1 mg/kg intravenous, read-out: mean half-life of elimination
  half-life: 1.47 h
[2]; in vivo, 10 mg/kg oral, read-out: mean apparent half-life of elimination
  half-life: 2.47 h
[2]; in vivo, oral, 10 mg/kg, read-out: average AUC (converted)
  AUC: 1080 ng·h/mL
[2]; in vivo, oral, 10 mg/kg, read-out: maximum concentration (Cmax)
  Cmax: 284 ng/mL
[3]; acute and repeated administration
  decline of plasma profile (compartment analysis): declines in one phase
[3]; after six hours, acute
  unchanged drug in plasma: still present in the plasma
[3]; 20 mg, acute study, read-out: average T max (converted)
  Tmax: 1.5 h
[3]; 20 mg, acute study, ±2.65 S.E., read-out: mean peak plasma level
  Cmax: 57.2 ng/mL
[3]; 20 mg, after acute administration, mean of 4 volunteers, read-out: T1/2 el. (converted)
  half-life: 1.88 h
[3]; 20 mg, after acute administration, volunteer 1, read-out: T1/2 el. (converted)
  half-life: 1.99 h
[3]; 20 mg, after acute administration, volunteer 2, read-out: T1/2 el. (converted)
  half-life: 1.05 h
[3]; 20 mg, after acute administration, volunteer 3, read-out: T1/2 el. (converted)
  half-life: 1.8 h
[3]; 20 mg, after acute administration, volunteer 4, read-out: T1/2 el. (converted)
  half-life: 2.66 h
[3]; 20 mg, after acute administration, ±0.65 S.D., read-out: mean T1/2 el. / terminal half life (converted)
  half-life: 1.8 h
[3]; 20 mg, mean of 4 volunteers, read-out: C max
  Cmax: 64.8 ng/mL
[3]; 20 mg, mean of 4 volunteers, read-out: T max
  Tmax: 1.5 h
[3]; 20 mg, volunteer 1, read-out: C max
  Cmax: 56 ng/mL
[3]; 20 mg, volunteer 1, read-out: T max
  Tmax: 1.5 h
[3]; 20 mg, volunteer 2, read-out: C max
  Cmax: 55 ng/mL
[3]; 20 mg, volunteer 2, read-out: T max
  Tmax: 1.5 h
[3]; 20 mg, volunteer 3, read-out: C max
  Cmax: 65 ng/mL
[3]; 20 mg, volunteer 3, read-out: T max
  Tmax: 2 h
[3]; 20 mg, volunteer 4, read-out: C max
  Cmax: 83 ng/mL
[3]; 20 mg, volunteer 4, read-out: T max
  Tmax: 1 h
[3]; after multiple-doses administration, mean of 4 volunteers, read-out: T1/2 el. (converted)
  half-life: 4.29 h
[3]; after multiple-doses administration, volunteer 1, read-out: T1/2 el. (converted)
  half-life: 4.11 h
[3]; after multiple-doses administration, volunteer 2, read-out: T1/2 el. (converted)
  half-life: 4.44 h
[3]; after multiple-doses administration, volunteer 3, read-out: T1/2 el. (converted)
  half-life: 4.12 h
[3]; after multiple-doses administration, volunteer 4, read-out: T1/2 el. (converted)
  half-life: 4.49 h
[3]; after repeated administration, read-out: mean terminal half life (converted)
  half-life: 4.29 h
[3]; mean of 4 volunteers
  AUC: 252 ng·h/mL
[3]; volunteer 1
  AUC: 219 ng·h/mL
[3]; volunteer 2
  AUC: 181 ng·h/mL
[3]; volunteer 3
  AUC: 269 ng·h/mL
[3]; volunteer 4
  AUC: 388 ng·h/mL
[3]; multiple dose, four hours after administration
  plasma level relative to peak: reduced to the half
[3]; multiple dose, two hours after last treatment
  plasma level of unchanged drug vs acute treatment at same time: three times upper
[3]; twelve hours after treatment, multiple dose
  unchanged drug in plasma: still present in the plasma
volunteers; oral
  normal respiratory function and other vital parameters: not affected
  pathological modification of the arterial pressure: not observed
  tolerance of oral treatment: well tolerated
volunteers; oral, two subjects (n. 3, 4)
  sinus bradycardia: moderate but definite sinus bradycardia
volunteers; subject n. 1, delayed from 0.14 sec.
  atrio-ventricular conduction time (PR interval): 0.16 s
volunteers; subject n. 2, delayed from 0.16 sec.
  atrio-ventricular conduction time (PR interval): 0.18 s
volunteers; two subjects (n. 1, 2)
  atrio-ventricular conduction time (PR interval), change: slightly prolonged
